# Publication PMC7502707, “Characterization and validation of a preventative therapy for hypertrophic cardiomyopathy in a murine model of the disease” (Proceedings of the National Academy of Sciences of the …, 2020)
# Marks after values point to notes of the source that are not given here.
# What was measured:
# [1] = system: cardiac L-type calcium channel (ICa-L); set-up: method as in PMID 19166857, PMID 24969422, PMID 24958783; conditions: wt myocytes; cited from earlier work
# cTnI-G203S mice = experiment: Echocardiography of treated cTnI-G203S mice; assay type: in vivo, mouse; conditions: for FS / HW:BW / IVSD / IVSS / LVDPW / LVEDD / LVESD / LVSPW: 10 μM i.p. 3×/wk/5 wk, mean
# Method: Male mice expressing the human cTnI gene encoding the human disease-causing mutation cTnI-G203S were used for all studies. The mice develop hallmark features of HCM by 21 wk ([7], [13]). Male mice expressing the normal human cTnI gene were used as controls (wt). Ten-week-old mice were used for in vitro studies. For in vivo studies, 20- or 30-wk-old cTnI-G203S mice were treated with 10 μM AID-TAT or AID[S]-TAT via intraperitoneal injection, 3×/wk/5 wk. In vivo dose of AID-TAT or AID[S]-TAT (10 μM) was calculated based on blood volume, equating to ∼2 mg/kg total BW. Male animal models were used to eliminate potential differences in responses due to sex. Experiments were performed in a total of 21 wt (AID[S]-TAT), 6 wt (AID-TAT), 15 cTnI-G203S (AID[S]-TAT), and 26 cTnI-G203S (AID-TAT) mice. All animals were randomly assigned to treatment groups. All animal studies were approved by the Animal Ethics Committee of The University of Western Australia in accordance with the 2013 Australian Code for the Care and Use of Animals for Scientific Purposes ([58]).
# Echocardiographic measurement of left ventricular function were performed on mice under light methoxyflurane anesthesia using an i13L probe on a Vivid 7 Dimension ultrasound system (GE Healthcare), as previously described ([13], [29], [30]). Each n represents the average of quantitative measurements from wt or cTnI-G203S mice for each treatment group. Detailed methods are provided in SI Appendix.
# Echocardiographic measurement of left ventricular function were performed on mice under light methoxyflurane anesthesia using an i13L probe on a Vivid 7 Dimension ultrasound system (GE Healthcare, Little Chalfont, United Kingdom) as previously described (4, 7). Echocardiographic measurements were taken on M-mode in triplicate from separate mice at a sweep speed of 200 mm/s. Each n represents the average of quantitative measurements from wt or cTnI-G203S mice for each treatment group. Measurements of left ventricular end diastolic diameter (LVEDD), left ventricular end systolic diameter (LVESD), fractional shortening (FS), left ventricular posterior wall in diastole (LVDPW), left ventricular posterior wall in systole (LVSPW), interventricular septum in diastole (IVSD), interventricular septum in systole (IVSS) and end diastolic diameter (EDD) were made. FS was calculated by the formula [(LVEDD-LVESD)/EDD] x 100. […]
# (BioAssay Systems, Hayward CA). All assays were performed as per manufacturer’s instructions, using a spectrophotometer (PowerWave XS).
# rats = conditions: cited from earlier work
# [2] = system: wt and cTnI-G203S cardiac myocytes; experiment: Mitochondrial flavoprotein oxidation (autofluorescence) after in vitro peptide exposure; assay type: cell-based, mouse; conditions: 10 μM BayK(−)
# Method: Fluorescence was measured on a Hamamatsu Orca ER digital camera attached to an inverted Nikon TE2000-U microscope. Fluorescent indicator 5,5′,6,6′-tetrachloro-1,1′,3,3′-tetraethylbenzimidazolylcarbocyanine iodide was used to measure Ψm in cardiac myocytes, as previously described (JC-1, Molecular Probes) ([61]). Autofluorescence was used to measure flavoprotein oxidation in cardiac myocytes based on previously described methods ([13], [29], [62]). Responses to drugs were reported as a percentage increase from the basal average. Detailed methods are provided in SI Appendix. […]
# Autofluorescence […]
# was used to measure flavoprotein oxidation in cardiac myocytes based on previously described methods (ex = 480 nm, em = 535 nm, interval = 1 min, exposure = 1.5 seconds) (4, 6, 7). Carbonyl cyanide-4-(trifluoromethoxy)phenylhydrazone (FCCP, 50 μM, mitochondrial electron transport chain uncoupler) was added at the end of each experiment to increase flavoprotein oxidation confirming signal was mitochondrial in origin. Ratiometric JC-1 or flavoprotein fluorescent signals were quantified by manually tracing myocytes and subtracting an equivalent background region […]
# Responses to drugs were reported as a percentage increase from the basal average. […]
# (10). Cardiac myocytes were treated with relevant drugs in 96 well plates. MTT was added to each well to a final concentration of 0.5 mg/ml and the rate of the increase in absorbance immediately measured using a spectrophotometer at 37°C (PowerWave XS, 570 nm, reference wavelength of 620 nm). The rate of the increase in absorbance in response to treatments was expressed as a percentage of the rate of the increase prior to the addition of treatments. Each n represents number of replicates for each treatment group from cardiac myocytes isolated from a total of 6 wt (AID[S]- TAT), 4 cTnI-G203S (AID[S]-TAT), and 3 (AID-TAT) mice.
# Immunoblot of ICa-L protein
# [3] = Post-HCM treatment (from 30 wk), 35-wk-old cTnI-G203S mice, n = 5
# [4] = Pre-HCM treatment (from 20 wk), 25-wk-old cTnI-G203S mice, n = 7 AID(S)-TAT, n = 6 AID-TAT
sequence,measurement,setting,value
QQLEEDLKGYLDWITQAE [AID-TAT],inactivation rate of the cardiac ICa-L,[1],slows the inactivation rate
same,FS,cTnI-G203S mice; [3],48.48%
same,HW:BW,cTnI-G203S mice; [3],5.81 mg/g
same,IVSD,cTnI-G203S mice; [3],0.95 mm
same,IVSS,cTnI-G203S mice; [3],1.05 mm
same,LVDPW,cTnI-G203S mice; [3],1.26 mm
same,LVEDD,cTnI-G203S mice; [3],3.18 mm
same,LVESD,cTnI-G203S mice; [3],1.67 mm
same,LVSPW,cTnI-G203S mice; [3],1.43 mm
same,FS,cTnI-G203S mice; [4],38.26^† %
same,HW:BW,cTnI-G203S mice; [4],4.70^† mg/g
same,IVSD,cTnI-G203S mice; [4],0.73^† mm
same,IVSS,cTnI-G203S mice; [4],0.82^† mm
same,LVDPW,cTnI-G203S mice; [4],1.23 mm
same,LVEDD,cTnI-G203S mice; [4],3.33^† mm
same,LVESD,cTnI-G203S mice; [4],2.06^† mm
same,LVSPW,cTnI-G203S mice; [4],1.37 mm
same,reversal of established HCM,"cTnI-G203S mice; cTnI-G203S mice with established HCM, 10 μM 3×/wk/5 wk",not effective at reversing the cardiomyopathy
same,development of HCM,"cTnI-G203S mice; precardiomyopathic cTnI-G203S mice, 10 μM 3×/wk/5 wk",prevents the development of HCM
same,contractility and cardiac hypertrophy,rats; following coronary artery occlusion in rats,improves contractility and prevents the development of cardiac hypertrophy
same,blood pressure and cardiac myocyte calcium influx,"rats; rat, in vivo",without decreasing blood pressure or altering cardiac myocyte calcium influx
same,increase in flavoprotein oxidation in response to BayK(−),"[2]; cTnI-G203S myocytes, 1 μM peptide in vitro",attenuated the response
same,increase in flavoprotein oxidation in response to BayK(−),"[2]; cTnI-G203S myocytes, 10 μM peptide in vitro",significantly attenuated the response
same,increase in flavoprotein oxidation in response to BayK(−),"[2]; wt myocytes, 1 μM peptide in vitro",attenuated the response in cTnI-G203S but not wt myocytes
same,increase in flavoprotein oxidation in response to BayK(−),"[2]; wt myocytes, 10 μM peptide in vitro",significantly attenuated the response
